These results are taken from ChEMBL document CHEMBL4706648, “Antitubercular 2-Pyrazolylpyrimidinones: Structure-Activity Relationship and Mode-of-Action Studies” (J Med Chem, 2021).

Values after ≈ are worked out from the molar mass of the structure shown. Active and inactive are the calls of the source. No cut-off for these calls is given here. Some results are limits rather than exact numbers.

For series [1], the system named is Mycobacterium tuberculosis. In kind it is functional. The settings on record: H37Rv, 168 h, time 7 day.
Series [2] is described as follows: Aqueous solubility of compound at pH 7.4. In kind it is physicochemical.
For a further series, the system named is CHO. The series is described as follows: Cytotoxicity against CHO cells assessed as reduction in cell viability by MTT assay. In kind it is cell-based. The settings on record: Cricetulus griseus. A general note: Formazan colour is commonly taken as a measure of viable cells.
Series [3] has as its system Mycobacterium tuberculosis. Briefly: Bactericidal activity against Mycobacterium tuberculosis H37Rv assessed as reduction in CFU grown under middlebrook 7H9/OADC-Glycerol-Tween80 medium at 1 to 2 times MIC incubated for 7 days. In kind it is functional. The settings on record: time 7 day.
Series [4] in a line: Metabolic stability in human liver microsomes assessed as parent compound remaining after 30 mins. In kind it is ADME, Microsome. The settings on record: 0.5 h.
Series [5] can be described thus: Metabolic stability in rat liver microsomes assessed as parent compound remaining after 30 mins. Format: ADME, Microsome. The settings on record: 0.5 h. A general note: Microsomes from liver hold many membrane-bound enzymes, among them those of drug oxidation.
Series [6] in a line: Metabolic stability in mouse liver microsomes assessed as parent compound remaining after 30 mins. In kind it is ADME, Microsome. The settings on record: 0.5 h.
The nature of series [7]: Protein binding in human plasma assessed as unbound fraction at 5 uM incubated for 1 hr at 37 degreeC and measured after 4 hrs by ultracentrifugation based LC-MS/MS analysis. The settings on record: 5 h. Format: ADME, cell-free.
Series [8] in a line: Kinetic solubility of compound at 200 uM at pH 7.4 measured after 20 hrs by HPLC-DAD analysis. Format: physicochemical. The settings on record: buffer, pH 7.4, 20 h.
The next series deals with Vero. Briefly: Cytotoxicity against African green monkey Vero cells assessed as reduction in cell viability by MTT assay. Format: cell-based. The settings on record: Chlorocebus sabaeus.
Series [9] concerns Mycobacterium tuberculosis. The series is described as follows: Antimycobacterial activity against wild-type Mycobacterium tuberculosis H37Rv assessed as inhibition of bacterial growth grown under middlebrook 7H9 medium incubated for 7 days by alamar blue broth microdilution method. Format: functional. The settings on record: 168 h, time 7 day. In general terms: Alamar Blue is a resazurin reagent that responds to reducing activity.

Series [10] relates to Mycobacterium tuberculosis. The series is described as follows: Antimycobacterial activity against mmpL3 gene silenced Mycobacterium tuberculosis H37Rv assessed as inhibition of bacterial growth grown under middlebrook 7H9 medium incubated for 7 days by alamar blue broth microdilution method. Format: functional, organism-based. The settings on record: time 7.0 day.

The MIC is the lowest concentration found to suppress growth. What is called solubility is the concentration that dissolves in the medium under given conditions. The term IC50 denotes the concentration that gives 50% inhibition. As to `COc1cc(-c2ccccc2)nc(-n2nc(C)cc2C)n1`, the MIC in [1] is above 50 µM. Besides, the solubility in series [2] (aqueous, read-out: solubility) amounted to 200 µM (≈ 56.1 µg/mL). In addition, in the series on CHO, the 50% inhibitory concentration (IC50) is above 50 µM.
In series [1], `Cc1cc(C)n(-c2nc(-c3cccnc3)cc(=O)[nH]2)n1` returned an MIC of 50 µM (≈ 13.4 µg/mL). For the same compound, the solubility in [2] (aqueous, read-out: solubility) was 200 µM (≈ 53.5 µg/mL). The concentration for half-maximal inhibition (IC50) in the series with CHO is above 50 µM.
The corresponding values for `Cc1nn(-c2nc(C(F)(F)F)cc(=O)[nH]2)c(C)c1Br` are 25 µM (≈ 8.43 µg/mL), 200 µM (≈ 67.4 µg/mL) and above 50 µM.
Take `CO[C@H]1/C=C/O[C@@]2(C)Oc3c(C)c(O)c4c(O)c(c(/C=N/N5CCN(C)CC5)c(O)c4c3C2=O)NC(=O)/C(C)=C\C=C\[C@H](C)[C@H](O)[C@@H](C)[C@@H](O)[C@@H](C)[C@H](OC(C)=O)[C@@H]1C` [RIFAMPIN]: the Activity in [3] is listed as 2 log10CFU.
Regarding `CCNc1cc(C)nn1-c1nc(C(F)(F)F)cc(=O)[nH]1`, in series [1], the MIC came out at 6.25 µM (≈ 1.8 µg/mL). The compound further gave a solubility in [2] (buffer) of 85 µM (≈ 24.4 µg/mL). Moreover, the IC50 in the series on CHO worked out at 8 µM.
On to `Cc1cc(Nc2ccc(F)cc2F)n(-c2nc(C(F)(F)F)cc(=O)[nH]2)n1`, for which the lowest concentration to inhibit growth in [1] (MIC) was 0.3 µM (≈ 0.111 µg/mL). For the same compound, in series [2] (aqueous, read-out: solubility), the solubility is below 5 µM. In the series with CHO, the half-inhibitory concentration (IC50) turned out to be 8 µM.
Regarding `Cc1cc(C)n(-c2nc(-c3ccc(NS(C)(=O)=O)cc3)cc(=O)[nH]2)n1`, the MIC in [1] was above 125 µM. Moreover, the solubility in [2] (buffer) amounted to 20 µM (≈ 7.19 µg/mL). Moreover, in the series on CHO, the concentration for half-maximal inhibition (IC50) was above 50 µM.
In turn, `Cc1cc(C)n(-c2nc(-c3ccc(F)cc3)c(C(=O)O)c(=O)[nH]2)n1` showed a minimal inhibitory concentration (MIC) in series [1] above 50 µM. For the same compound, the solubility in [2] (buffer) stood at 190 µM (≈ 62.4 µg/mL). Moreover, the IC50 in the series with CHO is above 50 µM.
As for `Cc1cc(C)n(-c2nc(-c3ccc(F)cc3)c(C#N)c(=O)[nH]2)n1`, in series [1], the minimum inhibitory concentration (MIC) was above 50 µM. Also, the solubility in series [2] (buffer) was found to be 30 µM (≈ 9.28 µg/mL). In addition, the IC50 in the series on CHO was above 50 µM.
`Cc1cc(NC2CCOCC2)n(-c2nc(C(F)(F)F)cc(=O)[nH]2)n1` had an MIC in [1] of 1.56 µM (≈ 0.536 µg/mL). This compound came in with a solubility in series [2] (buffer) of 50 µM (≈ 17.2 µg/mL). For the same compound, in the series on CHO, the IC50 was 18 µM. In addition, the Stabilty in [4] is reported as above 99%; in series [5] it was above 99%; in series [6], 93%. Also, in [7], the Fu came out at 0.014. Further, the Kinetic_solubility in series [8] turned out to be 50 µM.
In the case of `Cc1cc(N)n(-c2nc(-c3ccccc3)cc(=O)[nH]2)n1`, in the series on Vero, the IC50 turned out to be 9 µM. The solubility in series [2] (buffer) turned out to be 180 µM (≈ 48.1 µg/mL).
The compound `Cc1cc(=O)n(-c2nc(-c3ccccc3)cc(=O)[nH]2)[nH]1` showed an MIC in series [1] above 125 µM. The solubility in series [2] (aqueous, read-out: solubility) worked out at 190 µM (≈ 51 µg/mL).
Turning to `Cc1cc(C)n(-c2nc(-c3ccc(F)cc3)cc(=O)[nH]2)n1`, inhibition of growth in [1] (MIC) required 1.2 µM (≈ 0.341 µg/mL). In series [2] (buffer), the solubility is 35 µM (≈ 9.95 µg/mL). Besides, the half-maximal inhibitory concentration (IC50) with CHO is 4 µM.
With `Cc1cc(Nc2ccc(C(=O)N(C)C)cc2)n(-c2nc(C(F)(F)F)cc(=O)[nH]2)n1`, the MIC in series [1] was above 50 µM. Besides, in series [2] (aqueous, read-out: solubility), the solubility was found to be 200 µM (≈ 81.3 µg/mL).
Regarding `Cc1cc(Nc2ccc(N3CCOCC3)cn2)n(-c2nc(C(F)(F)F)cc(=O)[nH]2)n1`, the minimal inhibitory concentration (MIC) in [1] was found to be 2.3 µM (≈ 0.969 µg/mL). The compound also gave a solubility in series [2] (buffer) of 180 µM (≈ 75.8 µg/mL). Also, in the series with CHO, the IC50 stood at 1.3 µM.
Regarding `COCCNc1cc(C)nn1-c1nc(C(F)(F)F)cc(=O)[nH]1`, the minimal inhibitory concentration (MIC) in series [1] stood at 2 µM (≈ 0.635 µg/mL); in series [9] it was 1.2 µM (≈ 0.381 µg/mL). Besides, the solubility in [2] (aqueous, read-out: solubility) was determined as 200 µM (≈ 63.5 µg/mL). Further, the 50% inhibitory concentration (IC50) in the series on CHO stood at 17 µM. Also, in series [10], the outcome was Active.
Compound `Cc1cc(C)n(-c2nc(-c3ccc(F)cc3)c(C(N)=O)c(=O)[nH]2)n1` gave an MIC in [1] above 50 µM. Also, the solubility in series [2] (buffer) was found to be 110 µM (≈ 36 µg/mL).
Turning to `Cc1cc(C)n(-c2nc(-c3ccccc3)c(C)c(=O)[nH]2)n1`, the lowest concentration to inhibit growth in series [1] (MIC) was 2 µM (≈ 0.561 µg/mL). Moreover, the solubility in series [2] (buffer) came to 120 µM (≈ 33.6 µg/mL). Besides, in the series with CHO, the IC50 was determined as 25 µM. For the same compound, the Stabilty in series [4] amounted to 65%; in series [5], 54%; in [6], 45%. This compound came in with a Kinetic_solubility in series [8] of 120 µM.
For the compound `Cc1cc(O)nc(-n2nc(C)cc2C)n1`, the lowest concentration to inhibit growth in series [1] (MIC) was 30 µM (≈ 6.13 µg/mL). Moreover, the half-inhibitory concentration (IC50) in the series on Vero was determined as 325 µM. The same compound had a solubility in series [2] (buffer) of 180 µM (≈ 36.8 µg/mL).
For `Cc1cc(C)n(-c2nc3ccccc3c(=O)[nH]2)n1`, in [1], 3 µM (≈ 0.721 µg/mL) was the least that counted as inhibitory (MIC). Also, the solubility in series [2] (buffer) is 150 µM (≈ 36 µg/mL). In addition, in the series with CHO, the concentration for half-maximal inhibition (IC50) was determined as 6 µM.
Regarding `Cc1cc(NCCO)n(-c2nc(C(F)(F)F)cc(=O)[nH]2)n1`, 37 µM (≈ 11.2 µg/mL) was the least that counted as inhibitory in series [1] (MIC). In series [2] (aqueous, read-out: solubility), the solubility was 200 µM (≈ 60.6 µg/mL).
The compound `Cc1cc(NCCN(C)C)n(-c2nc(C(F)(F)F)cc(=O)[nH]2)n1` gave an MIC in series [1] of 58 µM (≈ 19.2 µg/mL). Moreover, in series [2] (aqueous, read-out: solubility), the solubility was determined as 200 µM (≈ 66.1 µg/mL).
Compound `Cc1cc(CN(C)C)nn1-c1nc(C(F)(F)F)cc(=O)[nH]1` yielded an MIC in [1] above 50 µM. In addition, the solubility in series [2] (aqueous, read-out: solubility) was 200 µM (≈ 60.3 µg/mL).
Consider `Cc1cc(C)n(-c2nc(-c3ccncc3)cc(=O)[nH]2)n1`, for which, in series [1], the lowest concentration to inhibit growth (MIC) was 9 µM (≈ 2.41 µg/mL). Besides, the solubility in series [2] (buffer) is 180 µM (≈ 48.1 µg/mL). Besides, the IC50 in the series with CHO is above 50 µM.
The compound `O=c1cc(-c2ccccc2)nc(-n2cccn2)[nH]1` registered an MIC in series [1] of 50 µM (≈ 11.9 µg/mL). In series [2] (buffer), this compound came in with a solubility of 190 µM (≈ 45.3 µg/mL). Besides, the 50% inhibitory concentration (IC50) in the series with CHO was above 50 µM.
